# Measurements from patent US12215234B2, “Process for the purification of methylene blue” (RK Pharma Solutions LLC, priority 2019, dated 2025).
# Values joined by “and” are separate entries in the source; they are usually repeats but may differ in a detail not shown here. Identical values can stand only once.
# Experiments:
# Assay type in all cases: physicochemical
# [1] = Stability study of methylene blue at about 20-25° C. (25/60), six months; design: Highest Unknown / Total impurities / Azure B / Azure C: unit not given here; conditions: stability at 25° C., Trial 1-3
# Method: (§1) Methylene blue product obtained by this process is then loaded for stability at about 20-25° C. and at about 40° C. Purity and metal content of Methylene blue is tested for up to six months.
# [2] = Stability study of methylene blue at about 40° C. (40/75), six months; conditions: stability at 40° C., Trial 1-3
# Method: as §1
# [3] = pH of formulation containing methylene blue made by the prior-art process; conditions: methylene blue by process of Fundamental Processes of Dye Chemistry, isolated in the range of 3.0-4.5; pH increases
# Text: Desired pH for the methylene blue formulation as per USP is in between 3.0-4.5.
# Another area of concern is pH of formulated methylene blue. USP mentions that pH of methylene blue formulation should be in between about 3.0 to about 4.5. In formulation, pH of Methylene blue solution tends to increase drastically when the pH of the active pharmaceutical ingredient (API) is kept in between about 3.0 to about 4.5 as per prior art process. To overcome such a problem, the reaction mass pH is preferably kept less than about 2 and more preferably pH of less than about 1. Suitable acids for the adjustment of pH to below about 1 includes, but is not limited to, hydrochloric acid.
smiles,measurement,setting,value
"CN(C)c1ccc2nc3ccc(N(C)C)cc3[s+]c2c1 [Methylene blue, 3,7-bis(dimethylamino)phenothiazin-5-ylium chloride]",Azure B,"[1]; impurity, 6M 25/60",2.37 and 2.2 and 2.17
same,Azure C,"[1]; impurity, 6M 25/60",0.01
same,Highest Unknown,"[1]; impurity, 6M 25/60",0.04 and 0.06 and 0.08
same,Metal Content Mn,[1]; 6M 25/60,0.68 ppm and 0.61 ppm and 0.48 ppm
same,Total impurities,[1]; 6M 25/60,2.46 and 2.4 and 2.44
same,Total metal content,"[1]; 6M 25/60, sum of Al, Cr, Cu, Mn, Zn",76.51 ppm and 75.6 ppm and 57.41 ppm
same,Purity,[1]; profile 6M 25/60,97.54 and 97.6 and 97.56
same,Azure B,"[2]; impurity, 6M 40/75",2.41 and 2.26
same,Azure C,"[2]; impurity, 6M 40/75",0.01
same,Metal Content Mn,[2]; 6M 40/75,0.49 ppm and 0.51 ppm
same,Total impurities,[2]; 6M 40/75,2.5 and 2.46 and 2.52
same,Total metal content,"[2]; 6M 40/75, sum of Al, Cr, Cu, Mn, Zn",74.97 ppm and 62.91 ppm and 62.48 ppm
same,Purity,[2]; profile 6M 40/75,97.5 and 97.54 and 97.48
same,pH of the formulation containing methylene blue,[3],above 4.5
